Entries after “also recorded” stand apart in the source; their conditions may differ.
How the values were obtained:
[1] = system: claudin-5; test: Western blot analysis of claudin-5 expression in brain after hydrodynamic tail vein delivery of siRNA; assay type: in vivo, C57/Bl6 mice
Procedure: Rapid high pressure, high volume tail vein injections were carried out (Kiang et al., 2005). Wild type C57/Bl6 mice of weight 20-30 g were individually restrained inside a 60-ml volume plastic tube. The protruding tail was warmed for 5 minutes prior to injection under a 60-W lamp and the tail vein clearly visualized by illumination from below. 20 micrograms of targeting siRNA, or non-targeting siRNA made up with PBS to a volume in mls of 10% of the body weight in grams or PBS alone, was injected into the tail vein at a rate of 1 ml/sec using a 26-gauge (26 G 3/8) needle. After 24, 48, 72 hours and 1 week, protein was isolated from total brain tissue by crushing brains to a fine powder in liquid N2 and subsequently using lysis buffer containing 62.5 mM Tris, 2% SDS, 10 mM Dithiothreitol, 10 μl protease inhibitor cocktail/100 ml (Sigma Aldrich, Ireland). The homogenate was centrifuged at 10,000 g for 20 mins @4° C., and the supernatant was removed for claudin-5 analysis.
Briefly, protein samples were separated on 12% SDS-PAGE gels and transferred to nitrocellulose membrane overnight using a wet electroblot apparatus. Efficiency of protein transfer was determined using Ponceau-S solution (Sigma Aldrich, Ireland). Non-specific binding sites were blocked by incubating the membrane at room temperature with 5% non-fat dry skimmed milk in Tris-buffered saline (TBS) (0.05 M Tris, 150 mM NaCl, pH 7.5) for 2 hours. Membranes were briefly washed with TBS, and incubated with polyclonal rabbit anti-claudin-5 (Zymed Laboratories, San Francisco, Calif.) (1:500) or polyclonal rabbit anti-β-actin (Abcam, Cambridge, UK) (1:1000). Antibodies were incubated with membranes overnight at 4° C. Membranes were washed with TBS, and incubated with a secondary anti-rabbit (IgG) antibody with Horse-Radish-Peroxidase (HRP) conjugates (1:2500), for 3 hours at room temperature. Immune complexes were detected using enhanced chemiluminescence (ECL).

[2] = system: occludin; test: Occludin expression following suppression of claudin-5 (Western blot, immunohistochemistry); assay type: in vivo, C57/Bl6 mice; settings: all time points post-delivery of claudin-5 siRNA
[3] = system: BRB; test: BRB permeability to Hoechst (562 Da), retinal cryosections and flatmounts; assay type: in vivo, C57/Bl6 mice
Procedure: In order to determine the permeability of brain and retinal microvessels to a molecule of 562 Daltons, mice were perfused through the left ventricle with 500 μl/g body weight of PBS containing 100 μg/ml Hoechst stain H33342 (Sigma Aldrich, Ireland) and 1 mg/ml FITC-Dextran-4 (FD-4) 24, 48, 72 hours and 1 week post-hydrodynamic delivery of claudin-5 siRNA. Following perfusion, the whole brain was dissected and placed in 4% PFA pH 7.4 overnight at 4° C. and subsequently washed 4×15 mins with PBS. Brains were then embedded in 4% agarose and 50 μm sections were cut using a Vibratome®. Whole eyes were removed and fixed with 4% PFA, and following washing with PBS and cryoprotection using a sucrose gradient, 12 μm cryosections were cut using a cryostat. Following analysis of retinal cryosections with an Olympus FluoView™ FV1000 Confocal microscope, images were oriented correctly using Adobe® Photoshop®.

[4] = system: endothelial cells of heart, liver, lung and kidney; test: Endothelial cell morphology of major organs (Griffonia simplicifolia-isolectin B4 staining); assay type: in vivo, mouse; settings: all time points; vs control groups
Procedure: Following hydrodynamic injection of siRNA targeting claudin-5, cryosections were prepared of all the major organs, the heart, liver, lung and kidney. Sections were incubated overnight at 4° C. with HRP-conjugated Griffonia simplicifolia-isolectin B4 in order to stain the endothelial cells of organs.

## claudin-5 siRNA: siRNA, sense CGUUGGAAAUUCUGGGUCUUU (SEQ ID NO: 1), antisense AGACCCAGAAUUUCCAACGUU (SEQ ID NO: 2) (listed as RNA, chemistry not given here)
[1]; 24 hours post delivery of 20 μg siRNA, vs un-injected, PBS and non-targeting siRNA controls
  claudin-5 expression, Western blot, brain: decrease in expression; also recorded: markedly decreased
[1]; 48 hours post delivery of 20 μg siRNA, vs controls
  claudin-5 expression, Western blot, brain: suppression was also evident
[1]; 48 hours post delivery of 20 μg siRNA, vs controls, listed as CLDN5 siRNA
  claudin-5 expression, Western blot, brain: significant decreases in Claudin-5 expression
[1]; 48 hours post delivery of 20 μg siRNA, vs controls, listed as siRNA targeting claudin-5
  claudin-5 expression, Western blot, brain: maximum suppression
[1]; 72 hours post delivery of 20 μg siRNA, vs controls, listed as CLDN5 siRNA
  claudin-5 expression, Western blot, brain: levels of expression appeared similar to those observed in the control groups
[1]; after injection
  time at which claudin-5 expression returns to normal, Western data: returning to normal between 72 hours and 1 week
[2]
  occludin expression, Western blot: remain un-changed at all time points
[3]; 24 and 48 hours post injection
  Hoechst staining in retinal flatmounts: stain extravascular nuclei
[3]; 24 hours post delivery
  extravasation of Hoechst in 12 μm retinal cryosections: Inner Nuclear Layer (INL) appearing stained
[3]; 48 hours post delivery
  extravasation of Hoechst in 12 μm retinal cryosections: distinct Outer Nuclear Layer (ONL) staining
[3]; up to 48 hour post-delivery
  extravasation of Hoechst H33342 from retinal microvessels, retinal cryosections: staining the Inner Nuclear Layer (INL) and Outer Nuclear Layer (ONL) of the retina
[4]
  endothelial cell morphology in liver, lung, kidney and heart: appeared similar at all time points and in all major organs
